Among the data in ChEMBL document CHEMBL4024743, “BACE-1 Inhibitors: From Recent Single-Target Molecules to Multitarget Compounds for Alzheimer's Disease” (J Med Chem, 2018) are concentration, bioavailability and IC50 values, retold here.

A short description of data set [1]: Drug uptake in CD16 mouse brain at 3 mg/kg, po after 30 mins by LC-MS/MS analysis. It is filed as ADME, organism-based. The conditions noted are these: read-out: Drug uptake.
Data set [2] is described as follows: Oral bioavailability in CD16 mouse at 10 mg/kg. In kind it is ADME, organism-based. Conditions: in vivo.
For data set [3], the target named is Glycogen synthase kinase-3 beta (Homo sapiens, UniProt P49841). The experiment in a line: Inhibition of recombinant human GSK3beta using prephosphorylated polypeptide as substrate preincubated for 30 mins followed by addition of kinase-glo stop solution measured after 10 mins by Kinase-Glo luminescence assay. For orientation: Kinase-Glo reads ATP consumption through a luciferase reaction.

The target in data set [4] is T1, Beta-secretase 1 (Homo sapiens, UniProt P56817). The experiment in a line: Inhibition of human BACE-1 preincubated for 1 hr followed by substrate addition measured after 60 mins by FRET assay.
In data set [5] the target is T1, Beta-secretase 1.
Description: Inhibition of BACE-1 (unknown origin) using APP derived polypeptide harboring Lys-Met/Asn-Leu mutation as substrate by FRET assay
Data set [6] has as its target T1, Beta-secretase 1. The experiment in a line: Inhibition of BACE-1 (unknown origin).

The term bioavailability denotes dose-corrected exposure relative to a reference, in per cent. By IC50 is commonly meant the concentration that gives 50% inhibition.

T1 sequence (P56817 whole entry): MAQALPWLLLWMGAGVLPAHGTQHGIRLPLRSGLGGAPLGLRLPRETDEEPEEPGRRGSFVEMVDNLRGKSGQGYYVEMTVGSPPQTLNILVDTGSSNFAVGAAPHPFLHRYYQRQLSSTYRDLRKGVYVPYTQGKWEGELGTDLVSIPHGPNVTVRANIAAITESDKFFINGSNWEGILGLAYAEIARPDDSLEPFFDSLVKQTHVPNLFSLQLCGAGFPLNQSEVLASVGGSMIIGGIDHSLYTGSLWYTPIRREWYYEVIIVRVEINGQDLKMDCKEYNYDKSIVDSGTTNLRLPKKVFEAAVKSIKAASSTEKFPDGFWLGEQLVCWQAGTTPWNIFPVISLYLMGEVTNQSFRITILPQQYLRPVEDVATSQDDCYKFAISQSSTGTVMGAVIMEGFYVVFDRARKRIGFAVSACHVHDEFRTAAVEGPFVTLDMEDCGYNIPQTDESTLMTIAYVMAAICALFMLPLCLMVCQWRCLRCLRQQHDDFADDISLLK
Glycogen synthase kinase-3 beta, sequence (P49841 whole entry): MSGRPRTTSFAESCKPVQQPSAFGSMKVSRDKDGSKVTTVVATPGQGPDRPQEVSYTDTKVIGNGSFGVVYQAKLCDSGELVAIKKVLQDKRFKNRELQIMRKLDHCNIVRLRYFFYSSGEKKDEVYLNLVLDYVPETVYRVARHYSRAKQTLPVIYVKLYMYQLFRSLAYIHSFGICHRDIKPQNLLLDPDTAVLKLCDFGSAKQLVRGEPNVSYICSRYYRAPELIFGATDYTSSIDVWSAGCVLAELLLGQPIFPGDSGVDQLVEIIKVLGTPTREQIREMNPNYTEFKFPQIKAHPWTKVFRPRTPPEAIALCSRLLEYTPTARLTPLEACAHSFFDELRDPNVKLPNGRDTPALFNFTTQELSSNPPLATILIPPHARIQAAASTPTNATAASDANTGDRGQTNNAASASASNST

As to `NC1=NC(c2ccc(F)cc2)NC(=O)N1` (stereo not drawn), in data set [1], the concentration at 0.5 h was found to be 620 nM. This compound yielded a bioavailability in data set [2] of 66%. Moreover, the half-inhibitory concentration (IC50) in data set [3] is 14.7 µM. At Beta-secretase 1 [4], `OC1=C2Nc3ccccc3N=C2OC1c1c[nH]c2ccc(COc3ccccc3)cc12` (stereo not drawn) had an IC50 of 1.8 µM. Turning to `CC#Cc1cncc(-c2ccc3c(c2)[C@]2(CO3)N=C(N)C[C@@H]2C(F)(F)F)c1`, the midpoint of inhibition against Beta-secretase 1 [5], the IC50, lay at 0.115 µM. The compound `CC1Cc2ccc(OC(=O)c3ccc(NC(=N)N)cc3)cc2OC1=O` (stereo not drawn) registered an IC50 at Beta-secretase 1 [4] of 1.5 µM. `O=C1NC(=O)C2C=CNC2N1` (stereo not drawn) displayed a half-inhibitory concentration (IC50) at Beta-secretase 1 [6] of 30.3 µM. As to `O=C1CSC2(CCN(CCCN3c4ccccc4Sc4ccc(Cl)cc43)CC2)N1` [SPICLOMAZINE], it took 6.6 µM to reach half-maximal inhibition on Beta-secretase 1 [4] (IC50).
